Literature values in article PMC11089247 (Frontiers in Pharmacology, 2024).
Counter-ions that a name gives are not always drawn.

What was measured:
CYP2C9 = system: CYP2C9; parameters: method as in Ji et al., 2015; conditions: substrate fluoxetine, ref Ji et al., 2015
CYP2C19 = conditions: substrate fluoxetine, ref Fang et al., 2017

CNCCC(Oc1ccc(C(F)(F)F)cc1)c1ccccc1 (centres unmarked) [fluoxetine, Fluoxetine hydrochloride]
Km (CYP2C9): 31.7 µM | Km (CYP2C19): 97.6 µM
